Test results reported in ChEMBL document CHEMBL4190403, “Design, synthesis, and biological evaluation of pyrazole derivatives containing acetamide bond as potential BRAFV600E inhibitors” (Bioorg Med Chem Lett, 2018).
Calls of active or inactive are those of the source. The calls are words filed in the database; no cut-off is given here.

Tests used:
A-375 [1] = test: Cell cycle arrest in human A375 cells assessed as accumulation at S phase at 10 uM after 24 hrs by propidium iodide staining-based flow cytometry (reference value: 20.08 to 31.09%); format: functional
A-375 [2] = test: Induction of apoptosis in human A375 cells assessed as late apoptotic cells at 10 uM after 24 hrs by Annexin V-FITC/propidium iodide staining based flow cytometry (reference value: 3.80 to 4.61%); format: functional
A-375 [3] = test: Induction of apoptosis in human A375 cells assessed as viable cells at 1 uM after 24 hrs by Annexin V-FITC/propidium iodide staining based flow cytometry (reference value: 90.6 to 94.3%); format: functional; settings: A-375, 24 h, read-out: Activity
A-375 [4] = test: Cell cycle arrest in human A375 cells assessed as accumulation at G2/M phase at 3 uM after 24 hrs by propidium iodide staining-based flow cytometry (reference value: 7.91 to 21.07%); format: functional
A-375 [5] = test: Cell cycle arrest in human A375 cells assessed as accumulation at S phase at 3 uM after 12 hrs by propidium iodide staining-based flow cytometry (reference value: 20.08 to 31.09%); format: functional
A-375 [6] = test: Cell cycle arrest in human A375 cells assessed as accumulation at G1 phase at 10 uM after 24 hrs by propidium iodide staining-based flow cytometry (reference value: 59.02 to 60.22%); format: functional
A-375 [7] = test: Cell cycle arrest in human A375 cells assessed as accumulation at G1 phase at 3 uM after 36 hrs by propidium iodide staining-based flow cytometry (reference value: 59.02 to 60.22%); format: functional
A-375 [8] = test: Induction of apoptosis in human A375 cells assessed as reduction in mitochondrial membrane potential up to 8 uM after 12 hrs using JC-1 staining-based flow cytometry; format: functional, cell-based
A-375 [9] = test: Induction of apoptosis in human A375 cells assessed as necrotic cells at 3 uM after 12 hrs by Annexin V-FITC/propidium iodide staining based flow cytometry (reference value: 0.635 to 3.12%); format: functional
A-375 [10] = test: Cell cycle arrest in human A375 cells assessed as accumulation at S phase at 3 uM after 36 hrs by propidium iodide staining-based flow cytometry (reference value: 20.08 to 31.09%); format: functional
A-375 [11] = test: Induction of apoptosis in human A375 cells assessed as viable cells at 3 uM after 24 hrs by Annexin V-FITC/propidium iodide staining based flow cytometry (reference value: 90.6 to 94.3%); format: functional; settings: A-375, 24 h, read-out: Activity

COc1ccc(-n2cc(NC(=O)Cn3ccc(-c4cccc(Cl)c4)n3)cn2)cc1 showed an Activity (A-375 [1]) of 47.03%, an Activity (A-375 [2]) of 37.5% and a viability at 1 µM (A-375 [3]) of 79.5%. For the same compound, the Activity (A-375 [4]) was 9.69 - 9.82%, the Activity (A-375 [5]) was 35.98% and the Activity (A-375 [6]) was 39.32%. The Activity (A-375 [7]) was 35.56%, the Activity (A-375 [8]) was “Active” and the Activity (A-375 [9]) was 9.77%. The Activity (A-375 [10]) was 52.38% and the viability at 3 µM (A-375 [11]) was 64.7 to 72.9%.
